The source of these data is US10323038B2, “Pyrazole compounds and methods of making and using same” (ABIDE THERAPEUTICS, INC., priority 2015, dated 2019).

A value given as a limit tells only on which side of the number the result lay.

One test concerns the target MAGL (Mus musculus (Mouse), UniProt O35678). The test is described as follows: In vitro competitive activity-based protein profiling, MAGL (mouse). The format is biochemical. The conditions noted are these: for inhibition at 1 µM: read-out: MAGL % inh. 1 μM (mouse). As to the method: (§1) In Vitro Competitive Activity-Based Protein Profiling.
(§2) Proteomes (mouse brain membrane fraction or cell lysates for mouse assays; human prefrontal cortex or cell membrane fractions for human assays) (50 μL, 1.0 mg/mL total protein concentration) were preincubated with varying concentrations of inhibitors at 37° C. After 30 min, FP—Rh or HT-01 (1.0 μL, 50 μM in DMSO) was added and the mixture was incubated for another 30 min at 37° C. Reactions were quenched with SDS loading buffer (15 μL-4×) and run on SDS-PAGE. Following gel imaging, serine hydrolase activity was determined by measuring fluorescent intensity of gel bands corresponding to MAGL and FAAH using ImageJ 1.43u software.

The target in another test is FAAH (Mus musculus (Mouse), UniProt O08914). The experiment in a line: In vitro competitive activity-based protein profiling, FAAH (mouse). The test is classed as biochemical. The conditions noted are these: for inhibition at 1 µM: read-out: FAAH % inh. 1 μM (mouse). The protocol: as §1, §2
Sequence of FAAH (O08914 whole entry): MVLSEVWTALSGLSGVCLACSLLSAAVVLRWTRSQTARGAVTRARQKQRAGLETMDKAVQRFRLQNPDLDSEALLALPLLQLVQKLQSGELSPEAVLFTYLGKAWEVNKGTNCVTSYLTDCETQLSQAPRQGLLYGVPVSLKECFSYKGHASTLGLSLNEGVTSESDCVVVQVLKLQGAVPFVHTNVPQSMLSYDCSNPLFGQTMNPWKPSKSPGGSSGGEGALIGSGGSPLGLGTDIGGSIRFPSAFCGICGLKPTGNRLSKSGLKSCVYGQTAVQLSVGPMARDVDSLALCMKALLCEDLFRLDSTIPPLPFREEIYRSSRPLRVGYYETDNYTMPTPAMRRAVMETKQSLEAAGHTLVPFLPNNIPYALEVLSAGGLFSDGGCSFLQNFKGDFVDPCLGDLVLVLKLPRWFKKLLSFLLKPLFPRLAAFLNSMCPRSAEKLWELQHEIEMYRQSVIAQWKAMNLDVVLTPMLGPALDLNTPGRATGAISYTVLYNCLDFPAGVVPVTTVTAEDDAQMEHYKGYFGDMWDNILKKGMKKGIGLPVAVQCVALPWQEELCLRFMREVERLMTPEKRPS

Sequence of MAGL (O35678 whole entry): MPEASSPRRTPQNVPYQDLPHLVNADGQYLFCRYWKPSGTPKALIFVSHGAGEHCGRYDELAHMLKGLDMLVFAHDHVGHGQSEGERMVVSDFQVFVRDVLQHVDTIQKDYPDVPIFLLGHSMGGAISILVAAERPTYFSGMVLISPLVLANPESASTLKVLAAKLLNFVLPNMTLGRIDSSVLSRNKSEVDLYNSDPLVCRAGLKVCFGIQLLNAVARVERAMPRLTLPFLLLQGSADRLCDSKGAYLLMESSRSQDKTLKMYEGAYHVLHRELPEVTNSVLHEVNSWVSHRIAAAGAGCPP

Take `CS(=O)(=O)Nc1cnn(C(=O)N2CC3CN(Cc4cccc(Cl)c4)CC3C2)c1` (stereo not shown) [Example 7, N-(1-(5-(3-chlorobenzyl)octahydropyrrolo[3,4-c]pyrrole-2-carbonyl)-1H-pyrazol-4-yl)methanesulfonamide]: at MAGL, the IC50 was in the range of 1000 to 10000 nM and the inhibition at 1 µM was 0 to 25%. Besides, on FAAH, the IC50 fell in the range of 100 to 1000 nM and the inhibition at 1 µM was not below 75%.

In the case of `CS(=O)(=O)Nc1cnn(C(=O)N2CC3CN(Cc4ccc(Cl)cc4)CC3C2)c1` (stereo not shown) [Example 8, N-(1-(5-(4-chlorobenzyl)octahydropyrrolo[3,4-c]pyrrole-2-carbonyl)-1H-pyrazol-4-yl)methanesulfonamide], the figures for the IC50 at MAGL and at FAAH were 1000 to 10000 nM and 100 to 1000 nM, respectively. In addition, the inhibition at 1 µM at MAGL was 0 to 25%; on FAAH, not below 75%.

For `CC(=O)N(C)c1cnn(C(=O)N2CC3CN(Cc4cccc(Cl)c4)CC3C2)c1` (stereo not shown) [Example 10, N-(1-(5-(3-chlorobenzyl)octahydropyrrolo[3,4-c]pyrrole-2-carbonyl)-1H-pyrazol-4-yl)-N-methylacetamide], at MAGL, the IC50 is 100 to 1000 nM and the inhibition at 1 µM was not below 75%. Moreover, at FAAH, the concentration for half-maximal inhibition (IC50) lay in the range of 100 to 1000 nM and the inhibition at 1 µM is not below 75%.

With `CC(=O)N(C)c1cnn(C(=O)N2CC3CN(Cc4ccc(Cl)c(Cl)c4)CC3C2)c1` (stereo not shown) [Example 12, N-(1-(5-(3,4-dichlorobenzyl)octahydropyrrolo[3,4-c]pyrrole-2-carbonyl)-1H-pyrazol-4-yl)-N-methylacetamide], on MAGL, the IC50 was in the range of 100 to 1000 nM and the inhibition at 1 µM is not below 75%. For the same molecule, on FAAH, the IC50 is not above 100 nM and the inhibition at 1 µM is not below 75%.

For the molecule `CC(=O)N(C)c1cnn(C(=O)N2CC3CN(Cc4ccc(N5CCCC5)cc4)CC3C2)c1` (stereo not shown) [Example 13, N-methyl-N-(1-(5-(4-(pyrrolidin-1-yl)benzyl)octahydropyrrolo[3,4-c]pyrrole-2-carbonyl)-1H-pyrazol-4-yl)acetamide], on MAGL, the IC50 lay in the range of 100 to 1000 nM and the inhibition at 1 µM is not below 75%. For the same molecule, on FAAH, the IC50 fell in the range of 100 to 1000 nM and the inhibition at 1 µM was not below 75%.

As for `CC(=O)N(C)c1cnn(C(=O)N2CC3CN(Cc4ccc(C(F)(F)F)cc4)CC3C2)c1` (stereo not shown) [Example 14, N-methyl-N-(1-(5-(4-(trifluoromethyl)benzyl)octahydropyrrolo[3,4-c]pyrrole-2-carbonyl)-1H-pyrazol-4-yl)acetamide], on MAGL, the IC50 is not above 100 nM and the inhibition at 1 µM is not below 75%. Further, at FAAH, the IC50 is not above 100 nM and the inhibition at 1 µM was not below 75%.

For `CC(=O)N(C)c1cnn(C(=O)N2CC3CN(Cc4ccc(N5CCOCC5)cc4Cl)CC3C2)c1` (stereo not shown) [Example 16, N-(1-(5-(2-chloro-4-morpholinobenzyl)octahydropyrrolo[3,4-c]pyrrole-2-carbonyl)-1H-pyrazol-4-yl)-N-methylacetamide], at MAGL, the IC50 was not above 100 nM and the inhibition at 1 µM is not below 75%. In addition, at FAAH, the IC50 was not above 100 nM and the inhibition at 1 µM was not below 75%.

Consider `CC(=O)N(C)c1cnn(C(=O)N2CC3CN(Cc4ccc(N5CCOCC5)cc4C)CC3C2)c1` (stereo not shown) [Example 17, N-methyl-N-(1-(5-(2-methyl-4-morpholinobenzyl)octahydropyrrolo[3,4-c]pyrrole-2-carbonyl)-1H-pyrazol-4-yl)acetamide], for which the inhibition at 1 µM at MAGL and on FAAH was not below 75% each time.

As to `CC(=O)N(C)c1cnn(C(=O)N2CC3(CCN(Cc4ccc(Cl)c(Cl)c4)CC3)C2)c1` [Example 18, N-(1-(7-(3,4-dichlorobenzyl)-2,7-diazaspiro[3.5]nonane-2-carbonyl)-1H-pyrazol-4-yl)-N-methylacetamide], the figures for the inhibition at 1 µM on MAGL and on FAAH were 25 to 50% and not below 75%, respectively.

For the molecule `CC(=O)N(C)c1cnn(C(=O)N2CC3(CCN(Cc4ccc(N5CCCC5)cc4)CC3)C2)c1` [Example 19, N-methyl-N-(1-(7-(4-(pyrrolidin-1-yl)benzyl)-2,7-diazaspiro[3.5]nonane-2-carbonyl)-1H-pyrazol-4-yl)acetamide], the results for the inhibition at 1 µM on MAGL and at FAAH were 50 to 75% and 25 to 50%, respectively.

In general, IC50 refers to the midpoint of a concentration-inhibition curve. A lower IC50 goes with inhibition by little substance.
